One data set relates to SMT-F tumor. Kind of data set: In vivo tumor photosensitizing activity (photodynamic tumor treatment). Set-up: species or system DBA/2 mice. The note with it: for Tumor Response Day 1 (Number of non-palpable tumors/Number treated tumors) / Tumor Response Day 7 (Number of non-palpable tumors/Number treated tumors) / Tumor Response Day 30 (Number of non-palpable tumors/Number treated tumors) / Tumor Response Day 90 (Number of non-palpable tumors/Number treated tumors): time interval 24 hours, 135 J/cm^2 laser at 75 mW/cm^2. The method, then: When 2-[1-(O-hexyl)ethyl]devinyl pyropheophorbide-a - structure (5) in Scheme 1: S—RO—where R═(CH2)5CH3 and m═H, (formula IIa) synthesized as indicated (5.0 mg) is dissolved in Tween 80 (0.1 ml) and mixed with 10 ml Hanks Balanced Salt Solution (HBSS), a solution of approximately 0.5 mg/ml in […] is produced after filtration through a 0.22 AM Millipore filter. […] […] Alternately, a Xenon arc lamp filtered to emit a broader band width near 670 nm and approximately 283 Joules/cm^2 can be used.
This progresses to frank tumor necrosis over the next few days. […] At 30 days post treatment, six of the 10 tumors remain non-palpable, and one remains tumor-free to 90 days post treatment.

Data set [1] can be described thus: Normal foot response / skin clearance after light exposure. The note with it: for Normal Foot Response Maximum Reaction (score): same light conditions as tumor treatment, score 0.3 - slight edema, 0 - no reaction. The data set is classed as in vivo, albino Swiss mice (HaICR). The method, then:
Six albino Swiss mice (HaICR) are injected intravenously with a dose of 0.1 mg/kg body weight of the compound of formula IIa prepared as in Example 1. After approximately 24 h, the hind foot of the animal is exposed to the same dose of either laser light at 660-670 nm (135 Joules/cm^2) or the Xenon arc lamp (283 Joules/cm^2) as above. The reaction of the foot is scored for damage over the next few days to determine the maximum effect, which in this case is a value 0.3 equivalent to slight edema. If the internal between the injection and light treatment is extended to approximately 48 h, the foot reaction is zero (no damage incurred), indicating either clearance or metabolism of the sensitizer.

The test system of a further data set is tumor. Kind of data set: in vivo tumoricidal activity assay. The note with it: injected at a dose of 5 mg/kg.
Setting [2] is: injected dose 0.1 mg/kg, wavelength 659.
[3] abbreviates: injected dose 0.3 mg/kg, wavelength 659.
The mark [4] stands for this setting: injected dose 0.3 mg/kg, wavelength 665.
The mark [5] stands for this setting: injected dose 0.3 mg/kg, wavelength 670.
Setting [6] is: injected dose 0.3 mg/kg, wavelength 680.
The mark [7] stands for this setting: ten mice, 0.3 mg/kg intravenously, approx. 24 h later laser light at 660-670 nm, 135 Joules/cm^2.
The mark [8] stands for this setting: injected dose 0.1 mg/kg, wavelength 660.
Setting [9] is: injected dose 0.3 mg/kg, wavelength 660.

With `CCCCCCOC(C)c1c(C)c2cc3nc(c4c5[nH]c(cc6nc(cc1[nH]2)C(C)=C6CC)c(C)c5C(=O)C4)[C@@H](CCC(=O)O)[C@@H]3C` (stereo partly shown) [Formula II R5 = —O—(CH2)5CH3 R7 = —CO2H, 2-{1(O-hexyl)ethyl}devinyl pyropheophorbide-a], the “Tumor Response Day 1 (Number of non-palpable tumors/Number treated tumors)” value in the data set on SMT-F tumor (injected dose 0.05 mg/kg, wavelength 659) was 0/40; in the data set with SMT-F tumor (setting [2]) it was 6/6; in the data set on SMT-F tumor (injected dose 0.3 mg/kg, wavelength 655), 0/10; in the data set on SMT-F tumor (setting [3]), 5/5; with SMT-F tumor (setting [4]), 10/10; in the data set on SMT-F tumor (setting [5]), 10/10. For the same molecule, the “Tumor Response Day 1 (Number of non-palpable tumors/Number treated tumors)” value in the data set on SMT-F tumor (setting [6]) is reported as 1/10. Further, the “Tumor Response Day 7 (Number of non-palpable tumors/Number treated tumors)” value in the data set on SMT-F tumor (setting [2]) is 6/6; in the data set on SMT-F tumor (setting [3]), 4/5; in the data set with SMT-F tumor (setting [4]) it was 10/10; with SMT-F tumor (setting [5]), 10/10; in the data set with SMT-F tumor (setting [6]) it was 0/10. The “Tumor Response Day 30 (Number of non-palpable tumors/Number treated tumors)” value in the data set on SMT-F tumor (setting [2]) is 1/6; with SMT-F tumor (setting [3]), 0/5; with SMT-F tumor (setting [4]), 2/10; in the data set on SMT-F tumor (setting [5]) it was 6/10. The results for the “Tumor Response Day 90 (Number of non-palpable tumors/Number treated tumors)” value in the data set with SMT-F tumor (setting [2]), in the data set on SMT-F tumor (setting [4]) and with SMT-F tumor (setting [5]) were 1/6, 0/10 and 1/10, respectively. Moreover, the “Tumor state at 7 days post treatment” value with SMT-F tumor (setting [7]) was “all tumors remain non-palpable and necrotic”. Besides, the “Tumor state the day after light treatment” value with SMT-F tumor (setting [7]) is “all the tumors are seen to be flat (non-palpable)”. Moreover, in the data set on SMT-F tumor (setting [7]), the “Tumor-free to 90 days post treatment (number of the 10)” value was “one”. Also, in the data set on SMT-F tumor (setting [7]), the “Tumors remaining non-palpable at 30 days post treatment” value is “six of the 10”. The “Foot reaction, maximum effect (damage score)” value in data set [1] (0.1 mg/kg intravenously, hind foot exposed after approx. 24 h, 660-670 nm laser 135 Joules/cm^2 or Xenon arc lamp 283 Joules/cm^2, 0.3 equivalent to slight edema) worked out at 0.3. The “Foot reaction (damage score)” value in data set [1] (0.1 mg/kg intravenously, interval between injection and light treatment approx. 48 h, zero = no damage incurred) is recorded as “zero”. In addition, the “Normal Foot Response Maximum Reaction (score)” value in data set [1] (table row of injected dose 0.1 mg/kg, time interval 24 hours) worked out at 0.3; in data set [1] (table row of injected dose 0.3 mg/kg, time interval 48-72 hours), 0.

With `C=Cc1c(C)c2cc3nc(c4c5[nH]c(cc6nc(cc1[nH]2)C(C)=C6CC)c(C)c5C(=O)[C@@H]4C(=O)OC)[C@@H](CCC(=O)OC)[C@@H]3C` [Methyl pheophorbide-a], the “in vivo tumoricidal activity” value with tumor was “inactive”.

In the case of `CCCCCCOC(C)c1c(C)c2cc3nc(c4c5[nH]c(cc6nc(cc1[nH]2)C(C)=C6CC)c(C)c5C(=O)C4)[C@@H](CCC(=O)OC)[C@@H]3C` (stereo partly shown) [Methyl-2-{1(O-hexyl)ethyl}-devinyl pyropheophorbide], in the data set on SMT-F tumor (setting [8]), the “Tumor Response Day 1 (Number of non-palpable tumors/Number treated tumors)” value is reported as 5/5 and the “Tumor Response Day 30 (Number of non-palpable tumors/Number treated tumors)” value is recorded as 0/5. In the data set with SMT-F tumor (setting [9]), the “Tumor Response Day 1 (Number of non-palpable tumors/Number treated tumors)” value was 6/6, the “Tumor Response Day 7 (Number of non-palpable tumors/Number treated tumors)” value was 6/6, the “Tumor Response Day 30 (Number of non-palpable tumors/Number treated tumors)” value is recorded as 3/6 and the “Tumor Response Day 90 (Number of non-palpable tumors/Number treated tumors)” value is reported as 3/6.
